Data published in patent US9593305B2, “Differentiation of pluripotent stem cells” (Janssen Biotech, Inc., priority 2008, dated 2017).

Tested on: H1 human embryonic stem cells
Assay: Step-wise differentiation, high content analysis of SOX17, PDX1, CDX2, insulin, glucagon (Example 12)
Assay type: cell-based
Procedure: The assay was initiated by aspirating the culture medium from each well and adding back an aliquot (0.5 ml) of test medium. Test conditions for the first step of differentiation were conducted over a three-day period, feeding daily by aspirating and replacing the medium from each well with fresh test medium. On the first day of assay, 100 ng/ml activin A (PeproTech; Cat #120-14) or 200 ng/ml GDF-8 (R&D Systems, Cat #788-G8) was added to respective assay wells where each growth factor was diluted into RPMI-1640 medium (Invitrogen; Cat #22400) with 1% Albumin Bovine Fraction V, Fatty Acid Free (FAF BSA) (MP Biomedicals, Inc; Cat 152401), 1% Probumin (Millipore; Cat #81-068-3) and 20 ng/ml Wnt3a (R&D Systems; Cat #1324-WN/CF). On the second day of assay, 100 ng/ml activin A or 200 ng/ml GDF-8 was diluted into RPMI-1640 medium supplemented with 2% FAF BSA without Wnt3a. In some test samples using GDF-8, Wnt3a was replaced with a either Compound 34 or Compound 56 at a concentration of 2.5 μM, and either Compound 34 or Compound 56 was added daily during all three days of definitive endoderm differentiation. At the conclusion of the first step of differentiation, cells from some wells were harvested for flow cytometry analysis to evaluate levels of CXCR4, a marker of definitive endoderm formation. […]

Substance: GDF-8: growth factor GDF-8, also known as myostatin, member of the TGF-β family
- normalized protein levels of insulin and glucagon after step 5 (GDF-8 versus activin A treatment groups in step 1): equivalent expression between the Activin A and GDF-8 treatment groups
- normalized Pdx1 and Cdx2 protein expression after step 3 (GDF-8 with Wnt3a or with a compound in step 1): equivalent levels of PDX1 and CDX2
